Patent publication US11209437B2, “Fluorescent probe and preparation method and use thereof” (Fluorescence Diagnosis (shanghai) Biotech Company Ltd., priority 2016, dated 2021)

Tests used:
[1] = Viscosity responsiveness: fluorescence emission spectra of probes in glycerol and methanol; assay type: physicochemical; settings: for Emission wavelength: excited at maximum excitation wavelength of each probe; for Fluorescence ratio in glycerol to methanol: probe 1×10^−5 M
Protocol: Probes 1 to 98, 101, 103, 105, 107, 109, 111, 114, 117, and 120, and the reference probes 99, 100, 102, 104, 106, 108, 110, 112, 113, 115, 116, 118, 119, 121, BG-CCVJ and BG-Gly-CCVJ were dissolved in dimethyl sulfoxide, respectively, to prepare mother liquors having a concentration of 1×10^−2 M, to each of which glycerol and methanol were added and uniformly mixed, to prepare solutions finally having a concentration of 1×10^−5 M. Depending on the probes, fluorescence emission spectra of the probes were detected successively with the maximum excitation wavelength of each probe under the same conditions, and the results were shown in Table 1.
That is, these probes are sensitive to viscosity changes and have viscosity responsiveness.

SNAP protein tags = biological target: T1, SNAP protein tags (Homo sapiens, UniProt P16455, A127T/A154D/C150Q/C62A/E30R/G131K/G132T/G153L/K125A/K32I/L33F/M134L/N157G/Q115S/Q116H/R128A/R135S/S151G/S152D/S159E); assay: Fluorescence activation of probe after incubation with corresponding protein tag (SNAP); assay type: biochemical; settings: probe 5 μM, protein tag 10 μM, 37° C., 1 hr
T1 sequence (P16455 1-182 E30R/K32I/L33F/C62A/Q115S/Q116H/K125A/A127T/R128A/G131K/G132T/M134L/R135S/C150Q/S151G/S152D/G153L/A154D/N157G/S159E): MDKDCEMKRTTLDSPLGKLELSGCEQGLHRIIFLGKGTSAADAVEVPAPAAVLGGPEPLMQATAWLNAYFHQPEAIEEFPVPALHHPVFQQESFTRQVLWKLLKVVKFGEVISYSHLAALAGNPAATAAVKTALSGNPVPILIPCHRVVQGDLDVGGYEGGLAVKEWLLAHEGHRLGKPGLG
Protocol: (§1) Probes were mixed with corresponding protein tags to obtain mixed samples, in which the final probe concentration was 5 μM, and the final protein tag concentration was 10 μM. The mixed samples were incubated 37° C. for 1 hr, fluorescence spectrophotometer was used to detect the change in fluorescence intensity, and the results are shown in Table 1.
(§2) From the quantum yield of probe bound to protein tag, after reacting with the protein tags, the probes of the Examples could be detected to have significant signal enhancement in corresponding excitation transmission channels, the fluorescence activation multiple reached several hundreds to a thousand or more, and the brightness was high, which illustrates that after the probes of the Examples are bound to the protein tags, fluorescence of the probes can be activated, and the probes have good fluorescent molecular switching properties. In contrast, though the fluorescence of the reference probes could also be activated, the quantum yield of activated fluorescence was very low, and the brightness was very poor. In particular, in view of comparison results between probe 98 and reference probe 99, probe 101 and reference probe 102, probe 103 and reference probe 104, probe 105 and reference probe 106, probe 107 and reference probe 108, probe 109 and reference probe 110, probe 111 and reference probe 112, probe 114 and reference probe 115, probe 117 and reference probe 118, probe 120 and reference probe 121 in Table 1, for the same fluorescent dye, when the ligand is connected to the electron donor part of the fluorescent dye, the fluorescence activation brightness of the probe is much higher than the reference probe in which ligand is connected to the electron acceptor part of the fluorescent dye.

[2] = Fluorescence of free probe prior to binding to a protein tag; assay type: physicochemical
Protocol: as §1, §2

Row | Emission wavelength [1] [nm] | Fluorescence ratio in glycerol to methanol [1] | Fluorescence activation multiple (SNAP protein tags) | Quantum yield of probe bound to protein tag (SNAP protein tags) | Quantum yield of free probe [2] | SMILES
1 | 649 | 129 | 53 | 0.01 | <0.001 | CN(CCO)c1cc2c(s1)-c1sc(/C=C(/C#N)C(=O)NCc3ccc(COc4nc(N)nc5[nH]cnc45)cc3)cc1C2(C)C [Reference Probe 99, reference compound]
2 | 480 | 213 | 43 | 0.011 | <0.001 | CN(C)c1ccc(/C=C(\C#N)C(=O)NCc2ccc(COc3nc(N)nc4[nH]cnc34)cc2)cc1 [Reference Probe 100, reference compound]
3 | 480 | 212 | 31 | 0.02 | <0.001 | CN(CCO)c1ccc(/C=C(\C#N)C(=O)NCc2ccc(COc3nc(N)nc4[nH]cnc34)cc2)cc1 [Reference Probe 102, reference compound]
4 | 515 | 351 | 23 | 0.02 | <0.001 | N#C/C(=C\c1ccc2c(c1)SCCN2CCO)C(=O)NCc1ccc(COc2nc(N)nc3[nH]cnc23)cc1 [Reference Probe 104, reference compound]
5 | 555 | 215 | 62 | 0.01 | <0.001 | CC1=CC(C)(C)N(CCO)c2ccc(/C=C(\C#N)C(=O)NCc3ccc(COc4nc(N)nc5[nH]cnc45)cc3)cc21 [Reference Probe 106, reference compound]
6 | 555 | 329 | 30 | 0.02 | <0.001 | CN(CCO)c1cc2sc(/C=C(\C#N)C(=O)NCc3ccc(COc4nc(N)nc5[nH]cnc45)cc3)cc2s1 [Reference Probe 108, reference compound]
7 | 567 | 218 | 23 | 0.01 | <0.001 | CN(CCO)c1ccc(C#C/C=C(\C#N)C(=O)NCc2ccc(COc3nc(N)nc4[nH]cnc34)cc2)cc1 [Reference Probe 110, reference compound]
8 | 570 | 211 | 41 | 0.01 | <0.001 | CN(CCO)c1ccc2cc(/C=C(\C#N)C(=O)NCc3ccc(COc4nc(N)nc5[nH]cnc45)cc3)sc2c1 [Reference Probe 112, reference compound]
9 | 625 | 129 | 36 | 0.01 | <0.001 | CN(C)c1ccc2nc(/C=C(\C#N)C(=O)NCc3ccc(COc4nc(N)nc5[nH]cnc45)cc3)sc2c1 [Reference Probe 113, reference compound]
10 | 625 | 113 | 38 | 0.01 | <0.001 | CN(CCO)c1ccc2nc(/C=C(\C#N)C(=O)NCc3ccc(COc4nc(N)nc5[nH]cnc45)cc3)sc2c1 [Reference Probe 115, reference compound]
11 | 620 | 125 | 29 | 0.01 | <0.001 | CN(C)c1ccc(-c2ccc(/C=C(\C#N)C(=O)NCc3ccc(COc4nc(N)nc5[nH]cnc45)cc3)s2)cc1 [Reference Probe 116, reference compound]
12 | 621 | 158 | 29 | 0.02 | <0.001 | CN(CCO)c1ccc(-c2ccc(/C=C(\C#N)C(=O)NCc3ccc(COc4nc(N)nc5[nH]cnc45)cc3)s2)cc1 [Reference Probe 118, reference compound]
13 | 655 | 362 | 15 | 0.01 | <0.001 | CN(C)c1ccc(-c2ccc(/C=C(\C#N)C(=O)NCc3ccc(COc4nc(N)nc5[nH]cnc45)cc3)s2)s1 [Reference Probe 119, reference compound]
14 | 655 | 219 | 39 | 0.01 | <0.001 | CN(CCO)c1ccc(-c2ccc(/C=C(\C#N)C(=O)NCc3ccc(COc4nc(N)nc5[nH]cnc45)cc3)s2)s1 [Reference Probe 121, reference compound]
15 | 501 | 260 | 170 | 0.02 | <0.001 | N#C/C(=C\c1cc2c3c(c1)CCCN3CCC2)C(=O)NCc1ccc(COc2nc(N)nc3[nH]cnc23)cc1 [Reference Probe BG-CCVJ, reference compound]
16 |  | 260 | 60 |  | <0.001 | N#C/C(=C\c1cc2c3c(c1)CCCN3CCC2)C(=O)NCC(=O)NCc1ccc(COc2nc(N)nc3[nH]cnc23)cc1 [Reference Probe BG-Gly-CCVJ, reference compound]
17 | 510 | 410 | 146 | 0.15 | 0.001 | CN(CCOC(=O)NCc1ccc(COc2nc(N)nc3[nH]cnc23)cc1)c1ccc(/C=C(\C#N)c2nc3ccccc3o2)cc1 [probe 2]
18 | 532 | 399 | 139 | 0.27 | 0.0019 | CN(CCOC(=O)NCc1ccc(COc2nc(N)nc3[nH]cnc23)cc1)c1ccc(/C=C(\C#N)c2nc3ccccc3s2)cc1 [probe 3]
19 | 480 | 562 | 490 | 0.35 | <0.001 | CN(CCOC(=O)NCc1ccc(COc2cc(Cl)nc(N)n2)cc1)c1ccc(/C=C(\C#N)C(=O)OC(C)(C)C)cc1 [probe 4]
20 | 555 | 790 | 1174 | 0.15 | <0.001 | CN(CCOC(=O)NCc1ccc(COc2cc(Cl)nc(N)n2)cc1)c1ccc(/C=C(\C#N)c2nc3ccccc3o2)cc1 [probe 5]
21 | 610 | 1183 | 989 | 0.37 | <0.001 | CN(CCOC(=O)NCc1ccc(COc2cc(Cl)nc(N)n2)cc1)c1ccc(/C=C(\C#N)c2nc3ccccc3s2)cc1 [probe 6]
22 | 482 | 655 | 431 | 0.39 | <0.001 | CC(C)(C)OC(=O)/C(C#N)=C/c1ccc(N(CCO)CCOC(=O)NCc2ccc(COc3nc(N)nc4[nH]cnc34)cc2)cc1 [probe 10]
